≈ marks a conversion by molar mass, not a printed value.
Experiments:
E. coli KC-14 [1] = assay: Protection of mice from experimental infection; assay type: in vivo; conditions: Table 3-2: male mice; intraperitoneal inoculation (744×LD₅₀); oral administration one hour after inoculation; survival ratio at 7 days
Protocol: (§1) Experimental infection was caused by intraperitoneal inoculation of respective bacteria to male mice. One hour after the inoculation, a test compound was orally administered to the mice. The therapeutic effect of each test compound was evaluated by reference to the 50% effective dose (ED₅₀) which was based on the survival ratio at 7 days after the administration according to the probit method [Proc. Soc. Exp. Med., Vol. 57, p 261-264 (1944)]. The minimum inhibitory concentration (MIC) of the infectious bacteria used was also determined. […]

S. aureus Smith [2] = assay: Protection of mice from experimental infection; assay type: in vivo; conditions: male mice; intraperitoneal inoculation 2.8×10⁶ cells/mouse (123×LD₅₀); oral administration one hour after inoculation; survival ratio at 7 days, probit method
Protocol: as §1

S. aureus MRSA Y-238 [3] = assay: Protection of mice from experimental infection; assay type: in vivo; conditions: Table 3-2: male mice; intraperitoneal inoculation 7.5×10⁵ cells/mouse (185×LD₅₀); oral administration one hour after inoculation; survival ratio at 7 days
Protocol: as §1

E. coli KC-14 [4] = assay: MIC of the infectious bacteria used for experimental infection; assay type: cell-based; conditions: Escherichia coli, KC14; infectious strain of the mouse protection test
Protocol: (§2) The in vitro antibacterial activity (minimum inhibitory concentration, MIC, µg/ml) of the test compounds was determined according to Japan Society of Chemotherapy Standard [Chemotherapy, vol. 29, pp 76-79 (1981)].
as §1

S. aureus Smith [5] = assay: as above; assay type: cell-based; conditions: Staphylococcus aureus; infectious strain of the mouse protection test
Protocol: as §2, §1

S. aureus MRSA Y-238 [6] = assay: as above; assay type: cell-based; conditions: Staphylococcus aureus, infectious strain of the mouse protection test
Protocol: as §2, §1

[7] = system: Mycobacterium smegmatis IFO 3153; assay: Antibacterial effect against specific bacteria (MIC); assay type: cell-based; conditions: Mycolicibacterium smegmatis, IFO3153; same manner as Experimental Example 1
Protocol: as §2
(§3) In the same manner as in Experimental Example 1, the antibacterial effect against specific bacteria such as Chlamydia, Mycoplasma and acid-fast bacteria and anaerobic bacteria was determined.

B. fragilis BFY-18 = assay: as above; assay type: cell-based; conditions: Bacteroides fragilis, BFY18; same manner as Experimental Example 1
Protocol: as §2, §3

[8] = system: Chlamydia trachomatis D/UW-3Cx; assay: as above; assay type: cell-based; conditions: same manner as Experimental Example 1
Protocol: as §2, §3

[9] = system: Ureaplasma urealyticum ATCC 27618; assay: as above; assay type: cell-based; conditions: ATCC27618, same manner as Experimental Example 1
Protocol: as §2, §3

[10] = system: Mycoplasma pneumoniae ATCC 29343; assay: as above; assay type: cell-based; conditions: ATCC29343, same manner as Experimental Example 1
Protocol: as §2, §3

[11] = system: Proteus vulgaris IFO 3988; assay: In vitro antibacterial activity (MIC), Japan Society of Chemotherapy Standard; assay type: cell-based; conditions: IFO3988, inoculated cells 10⁶ cells/ml
Protocol: as §2
(§4) Inoculated cells were 10⁶ cells/ml and the strain with * was incubated in a medium supplemented with 10% horse blood. The mark "1)" means quinolone resistant MRSA and "2)" means quinolone resistant bacteria.

Klebsiella pneumoniae DT = assay: as above; assay type: cell-based; conditions: inoculated cells 10⁶ cells/ml
Protocol: as §2, §4

[12] = system: Streptococcus pyogenes C-203; assay: as above; assay type: cell-based; conditions: C203, inoculated cells 10⁶ cells/ml, medium supplemented with 10% horse blood
Protocol: as §2, §4

P. mirabilis IFO 3849 = assay: as above; assay type: cell-based; conditions: Proteus mirabilis, IFO3849; inoculated cells 10⁶ cells/ml
Protocol: as §2, §4

E. faecalis EFY-204 = assay: as above; assay type: cell-based; conditions: Enterococcus faecalis, EFY204; quinolone resistant bacteria; inoculated cells 10⁶ cells/ml
Protocol: as §2, §4

E. avium EAY-30 = assay: as above; assay type: cell-based; conditions: Enterococcus avium, EAY30, inoculated cells 10⁶ cells/ml
Protocol: as §2, §4

E. faecium EFMY-207 = assay: as above; assay type: cell-based; conditions: Enterococcus faecium, EFMY207; quinolone resistant bacteria; inoculated cells 10⁶ cells/ml
Protocol: as §2, §4

[13] = system: Enterobacter cloacae IFO 12937; assay: as above; assay type: cell-based; conditions: IFO12937, inoculated cells 10⁶ cells/ml
Protocol: as §2, §4

S. epidermidis SEY-223 = assay: as above; assay type: cell-based; conditions: Staphylococcus epidermidis, SEY223; quinolone resistant bacteria; inoculated cells 10⁶ cells/ml
Protocol: as §2, §4

[14] = system: Escherichia coli NIHJ JC-2; assay: as above; assay type: cell-based; conditions: NIHJJC2, inoculated cells 10⁶ cells/ml
Protocol: as §2, §4

[15] = system: Enterococcus faecalis LS-101; assay: as above; assay type: cell-based; conditions: LS101, inoculated cells 10⁶ cells/ml
Protocol: as §2, §4

S. viridans America = assay: as above; assay type: cell-based; conditions: Streptococcus viridans; inoculated cells 10⁶ cells/ml; medium supplemented with 10% horse blood
Protocol: as §2, §4

[16] = system: Staphylococcus aureus FDA 209P; assay: as above; assay type: cell-based; conditions: FDA209P, inoculated cells 10⁶ cells/ml
Protocol: as §2, §4

S. aureus No.88 = assay: as above; assay type: cell-based; conditions: Staphylococcus aureus; quinolone resistant MRSA; inoculated cells 10⁶ cells/ml
Protocol: as §2, §4

[17] = system: S. epidermidis ATCC 12228; assay: as above; assay type: cell-based; conditions: Staphylococcus epidermidis, ATCC12228; inoculated cells 10⁶ cells/ml
Protocol: as §2, §4

[18] = system: Citrobacter freundii IFO 12681; assay: as above; assay type: cell-based; conditions: IFO12681, inoculated cells 10⁶ cells/ml
Protocol: as §2, §4

[19] = system: Serratia marcescens IFO 12648; assay: as above; assay type: cell-based; conditions: IFO12648, inoculated cells 10⁶ cells/ml
Protocol: as §2, §4

S. pneumoniae Type-III = assay: as above; assay type: cell-based; conditions: Streptococcus pneumoniae; inoculated cells 10⁶ cells/ml; medium supplemented with 10% horse blood
Protocol: as §2, §4

[20] = system: Corynebacterium diphtheriae Tronto; assay: as above; assay type: cell-based; conditions: inoculated cells 10⁶ cells/ml, medium supplemented with 10% horse blood
Protocol: as §2, §4

[21] = system: Acinetobacter calcoaceticus ATCC 13006; assay: as above; assay type: cell-based; conditions: ATCC13006, inoculated cells 10⁶ cells/ml
Protocol: as §2, §4

Shigella flexneri EW-10 = assay: as above; assay type: cell-based; conditions: EW10, inoculated cells 10⁶ cells/ml
Protocol: as §2, §4

[22] = system: Pseudomonas aeruginosa IFO 12582; assay: as above; assay type: cell-based; conditions: IFO12582, inoculated cells 10⁶ cells/ml
Protocol: as §2, §4

E. faecium EFMY-28 = assay: as above; assay type: cell-based; conditions: Enterococcus faecium, EFMY28; inoculated cells 10⁶ cells/ml
Protocol: as §2, §4

What does the source list for COc1c(N2CC[C@@](CN)(CF)C2)c(F)cc2c(=O)c(C(=O)O)cn(C3CC3)c12 [Example 17, (S)-7-(3-aminomethyl-3-fluoromethylpyrrolidin-1-yl)-1-cyclopropyl-6-fluoro-1,4-dihydro-8-methoxy-4-oxo-3-quinolinecarboxylic acid]?
ED₅₀ (mg/mouse) (95% confidence limit) (E. coli KC-14 [1]): 0.011(0.008-0.015) mg/mouse; ED₅₀ (mg/mouse) (95% confidence limit) (S. aureus Smith [2]): 0.031(0.021-0.044) mg/mouse; ED₅₀ (mg/mouse) (95% confidence limit) (S. aureus MRSA Y-238 [3]): 1.540(1.103-2.151) mg/mouse; MIC (E. coli KC-14 [4]): 0.025 µg/mL; MIC (S. aureus Smith [5]): ≤ 0.006 µg/mL; MIC (S. aureus MRSA Y-238 [6]): 0.39 µg/mL; MIC [7]: 0.1 µg/mL (≈ 0.245 µM); MIC (B. fragilis BFY-18): 0.2 µg/mL (≈ 0.491 µM); MIC [8]: 0.025 µg/mL (≈ 0.0614 µM); MIC [9]: 0.39 µg/mL (≈ 0.957 µM); MIC [10]: 0.1 µg/mL (≈ 0.245 µM); MIC [11]: 0.78 µg/mL (≈ 1.91 µM); MIC (Klebsiella pneumoniae DT): 0.05 µg/mL (≈ 0.123 µM); MIC [12]: 0.1 µg/mL (≈ 0.245 µM); MIC (P. mirabilis IFO 3849): 0.78 µg/mL (≈ 1.91 µM); MIC (E. faecalis EFY-204): 1.56 µg/mL (≈ 3.83 µM); MIC (E. avium EAY-30): 0.2 µg/mL (≈ 0.491 µM); MIC (E. faecium EFMY-207): 3.13 µg/mL (≈ 7.68 µM); MIC [13]: 0.39 µg/mL (≈ 0.957 µM); MIC (S. epidermidis SEY-223): 0.78 µg/mL (≈ 1.91 µM); MIC [14]: 0.1 µg/mL (≈ 0.245 µM); MIC [15]: 0.025 µg/mL (≈ 0.0614 µM); MIC (S. viridans America): 0.1 µg/mL (≈ 0.245 µM); MIC [16]: 0.012 µg/mL (≈ 0.0295 µM); MIC (S. aureus No.88): 0.78 µg/mL (≈ 1.91 µM); MIC [17]: 0.025 µg/mL (≈ 0.0614 µM); MIC [18]: 0.2 µg/mL (≈ 0.491 µM); MIC [19]: 0.39 µg/mL (≈ 0.957 µM); MIC (S. pneumoniae Type-III): 0.05 µg/mL (≈ 0.123 µM); MIC [20]: 0.025 µg/mL (≈ 0.0614 µM); MIC [21]: 0.1 µg/mL (≈ 0.245 µM); MIC (Shigella flexneri EW-10): 0.025 µg/mL (≈ 0.0614 µM); MIC [22]: 1.56 µg/mL (≈ 3.83 µM); MIC (E. faecium EFMY-28): 0.39 µg/mL (≈ 0.957 µM)

Source: patent publication EP0677522A1, “8-METHOXYQUINOLONECARBOXYLIC ACID DERIVATIVE” (priority 1992, dated 1994)
